Counter-ions that a name gives are not always drawn.
target: T1, hNET (Homo sapiens, UniProt P23975); test: Norepinephrine (NE) uptake assay in MDCK-Net6 cells; assay type: cell-based; details: 1 μM test compound; MDCK-Net6 cells stably transfected with human hNET; [3H]NE uptake
T1 construct: expressed in transfected cells; host or cells: MDCK-Net6 (MDCK cells stably transfected with hNET)
Procedure: Cells were plated at 300,000 T75 flask and cells were split twice weekly. […] Cells were plated at 250,000 cells/T75 flask and split twice weekly.
On day 1, cells were plated at 3,000 cells/well in growth medium and maintained in a cell incubator (37° C., 5% CO2). On day 2, growth medium was replaced with […] of assay buffer (25 mM HEPES; 120 mM NaCl; 5 mM KCl; 2.5 mM CaCl2; 1.2 mM MgSO4; 2 mg/ml glucose (pH 7.4, 37° C.)) containing 0.2 mg/ml ascorbic acid and […]. Plates containing cells with […] of assay buffer were equilibrated for 10 minutes at 37° C. prior to addition of compounds. A stock solution of desipramine was prepared in DMSO (10 mM) and delivered to triplicate wells containing cells for a final test concentration of 1 μM. Data from these wells were used to define non-specific NE uptake (minimum NE uptake). Test compounds were prepared in DMSO (10 mM) and diluted in assay buffer according to test range (1 to 10,000 nM). Twenty-five microliters of assay buffer (maximum NE uptake) or test compound were added directly to triplicate wells containing cells in 200 μl of assay buffer. The cells in assay buffer with test compounds were incubated for 20 minutes at 37° C. To initiate the NE uptake, [^3H]NE diluted in assay buffer (120 nM final assay concentration) was delivered in 25 μl aliquots to each well and the plates were incubated for 5 minutes (37° C.). The reaction was terminated by decanting the supernatant from the plate. The plates containing cells were washed twice with 200 μl assay buffer (37° C.) to remove free radioligand. The plates were then inverted, left to dry for 2 minutes, then reinverted and air-dried for an additional 10 minutes. The cells were lysed in 25 μl of 0.25 N NaOH solution (4° C.), placed on a shake table and vigorously shaken for 5 minutes. After cell lysis, 75 μl of scintillation cocktail was added to each well and the plates were sealed with film tape. The plates were returned to the shake table and vigorously shaken for a minimum of 10 minutes to ensure adequate partitioning of organic and aqueous solutions. The plates were counted in a Wallac Microbeta counter (PerkinElmer) to collect the raw cpm data.
For each experiment, a data stream of cpm values collected from the Wallac Microbeta counter was downloaded to a Microsoft Excel statistical application program. Calculations of EC50 values were made using the transformed-both-sides logistic dose response program written by Wyeth Biometrics Department.

T1 sequence (P23975 whole entry): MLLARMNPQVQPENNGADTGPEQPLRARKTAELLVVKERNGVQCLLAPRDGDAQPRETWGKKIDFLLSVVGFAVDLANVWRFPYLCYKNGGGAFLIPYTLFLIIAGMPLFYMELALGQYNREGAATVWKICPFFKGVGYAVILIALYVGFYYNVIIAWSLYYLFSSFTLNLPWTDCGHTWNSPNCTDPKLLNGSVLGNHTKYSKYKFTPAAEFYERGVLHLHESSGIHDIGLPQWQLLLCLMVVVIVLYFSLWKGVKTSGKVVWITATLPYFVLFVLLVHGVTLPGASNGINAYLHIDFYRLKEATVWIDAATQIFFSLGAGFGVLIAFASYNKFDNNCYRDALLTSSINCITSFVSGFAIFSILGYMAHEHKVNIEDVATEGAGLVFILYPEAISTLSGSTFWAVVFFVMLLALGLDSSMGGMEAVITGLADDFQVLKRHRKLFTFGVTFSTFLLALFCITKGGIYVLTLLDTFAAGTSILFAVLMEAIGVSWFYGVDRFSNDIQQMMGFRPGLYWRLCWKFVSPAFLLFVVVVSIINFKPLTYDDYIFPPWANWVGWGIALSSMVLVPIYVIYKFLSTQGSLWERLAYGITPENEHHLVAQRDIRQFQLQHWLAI

| inhibition at 1 µM [%] | SMILES |
| --- | --- |
| 92 | Cc1cccc(N(C)[C@@H](c2ccccc2)[C@H](O)CN)c1 (racemic) [Example 2, (1RS,2SR)-3-amino-1-[methyl(3-methylphenyl)amino]-1-phenylpropan-2-ol hydrochloride] |
| 45 | CN(c1ccccc1Cl)[C@@H](c1ccccc1)[C@H](O)CN (racemic) [Example 3, (1RS,2SR)-3-amino-1-[(2-chlorophenyl)(methyl)amino]-1-phenylpropan-2-ol hydrochloride] |
| 86 | COc1cccc(N(C)[C@@H](c2ccccc2)[C@H](O)CN)c1 (racemic) [Example 4, (1RS,2SR)-3-amino-1-[(3-methoxyphenyl)(methyl)amino]-1-phenylpropan-2-ol hydrochloride] |
| 92 | COc1ccc([C@@H]([C@H](O)CN)N(C)c2ccc(Cl)cc2)cc1 (racemic) [Example 6, (1RS,2SR)-3-amino-1-[(4-chlorophenyl)(methyl)amino]-1-(4-methoxyphenyl)propan-2-ol hydrochloride] |
| 99 | CNC[C@@H](O)[C@H](c1cccc(F)c1)N(C)c1ccc(Cl)cc1 (racemic) [Example 23, (1RS,2SR)-1-[(4-chlorophenyl)(methyl)amino]-1-(3-fluorophenyl)-3-(methylamino)propan-2-ol hydrochloride] |
| 92 | CNC[C@@H](O)[C@H](c1ccc(OC)cc1)N(C)c1cccc(F)c1 (racemic) [Example 24, (1RS,2SR)-1-[(3-fluorophenyl)(methyl)amino]-1-(4-methoxyphenyl)-3-(methylamino)propan-2-ol hydrochloride] |
| 97 | CNC[C@@H](O)[C@H](c1ccc(OC)cc1)N(C)c1ccc(Cl)cc1 (racemic) [Example 25, (1RS,2SR)-1-[(4-chlorophenyl)(methyl)amino]-1-(4-methoxyphenyl)-3-(methylamino)propan-2-ol hydrochloride] |
| 75 | CNC[C@@H](O)[C@H](c1ccc(OC)cc1)N(C)c1ccc(OC)cc1 (racemic) [Example 26, (1RS,2SR)-1-(4-methoxyphenyl)-1-[(4-methoxyphenyl)(methyl)amino]-3-(methylamino)propan-2-ol hydrochloride] |
| 71 | CCNC[C@@H](O)[C@H](c1ccccc1)N(C)c1ccc(C)cc1 (racemic) [Example 28, (1RS,2SR)-3-(ethylamino)-1-[methyl(4-methylphenyl)amino]-1-phenylpropan-2-ol hydrochloride] |
| 95 | CCNC[C@@H](O)[C@H](c1ccc(OC)cc1)N(C)c1ccc(Cl)cc1 (racemic) [Example 29, (1RS,2SR)-1-[(4-chlorophenyl)(methyl)amino]-3-(ethylamino)-1-(4-methoxyphenyl)propan-2-ol hydrochloride] |
| 56 | CCNC[C@@H](O)[C@H](c1cccc(Cl)c1)N(C)c1ccccc1 (racemic) [Example 30, (1RS,2SR)-1-(3-chlorophenyl)-3-(ethylamino)-1-[methyl(phenyl)amino]propan-2-ol hydrochloride] |
| 88 | CCNC[C@@H](O)[C@H](c1ccc(Cl)cc1)N(C)c1ccccc1 (racemic) [Example 31, (1RS,2SR)-1-(4-chlorophenyl)-3-(ethylamino)-1-[methyl(phenyl)amino]propan-2-ol hydrochloride] |
| 95 | Cc1ccc(N(C)[C@@H](c2ccccc2)[C@H](O)CN(C)C)cc1 (racemic) [Example 32, (1RS,2SR)-3-(dimethylamino)-1-[methyl (4-methylphenyl)amino]-1-phenylpropan-2-ol hydrochloride] |
